In patent US20110251191A1, “USE OF SUBSTITUTED 2, 3-DIHYDROIMIDAZO[1,2-C]QUINAZOLINES FOR THE TREATMENT OF MYELOMA” (BAYER SCHERING PHARMA AKTIENGESELLSCHAFT, priority 2008, published 2011) one finds IC50 data, which are given here for 1 molecule.

Holding throughout (format): cell-based
Experiment [1] has as its system KMS-12-BM. Briefly: proliferation assay (CellTiter-Glo), KMS-12-BM. As to conditions: KMS-12-BM cells, 72-hour drug exposure. As to the method: (§1) In accordance with the invention, the compounds were assessed in a cell-based assay that measures the capacity of the compounds to inhibit tumor cell proliferation following a 72-hour drug exposure. Cell viability is determined using CellTiter-Glo® Luminescent Cell Viability Assay (Promega). Cells were plated at 2000-5000 cells/well (depending on the cell lines) in 100 μL growth medium on 96-well microtiterplate. For each cell line assayed, cells were plated onto a separate plate for determination of Luminescence at t=0 hour and t=72 hour time points. Following overnight incubation at 37° C., Luminescence values for the t=0 samples were determined. Dose plates for the t=72 hour time points were treated with compounds diluted into growth medium. Cells were then incubated for 72 hours at 37° C. Luminescence values for the t=72 hour samples were determined. For data analysis, briefly, t=0 values were subtracted from those determined for the t=72 hour time points, for both the treated and untreated samples. Percent differences in […] between drug-treated and control values were used to determine the percent inhibition of growth.

For experiment [2], the system named is KMS-12-PE. The experiment can be described thus: proliferation assay (CellTiter-Glo), KMS-12-PE. As to conditions: Homo sapiens; KMS-12-PE cells, 72-hour drug exposure. How it is done:
as §1

Experiment [3] concerns L363. The experiment can be described thus: proliferation assay (CellTiter-Glo), L363. As to conditions: Homo sapiens, L-363; L363 cells, 72-hour drug exposure. As to the method: as §1
Experiment [4] relates to LP-1. Briefly: proliferation assay (CellTiter-Glo), LP-1. As to conditions: LP-1 cells, 72-hour drug exposure. How it is done:
as §1

The subject of experiment [5] is Molm13. Briefly: proliferation assay (CellTiter-Glo), Molm13. As to conditions: Homo sapiens, MOLM-13; Molm13 cells, 72-hour drug exposure. How it is done:
as §1

Experiment [6] relates to Molp2. Briefly: proliferation assay (CellTiter-Glo), Molp2. As to conditions: MOLP-2; Molp2 cells, 72-hour drug exposure. As to the method:
as §1

The test system of experiment [7] is Molp8. The experiment can be described thus: proliferation assay (CellTiter-Glo), Molp8. As to conditions: Homo sapiens, MOLP-8; Molp8 cells, 72-hour drug exposure. How it is done: as §1
The subject of experiment [8] is RPMI 8226. The experiment can be described thus: proliferation assay (CellTiter-Glo), RPMI 8226. As to conditions: Homo sapiens; RPMI 8226 cells, 72-hour drug exposure. As to the method:
as §1

The test system of experiment [9] is OPM2. The experiment can be described thus: proliferation assay (CellTiter-Glo), OPM2. As to conditions: Homo sapiens, OPM-2; OPM2 cells, 72-hour drug exposure. As to the method:
as §1

For experiment [10], the system named is multiple myeloma cell lines. The experiment can be described thus: proliferation assays with multiple myeloma cell lines (summary). As to conditions: range over 9 multiple myeloma cell lines, 72-hour drug exposure; read-out: IC50s, proliferation of 9 multiple myeloma tested. As to the method: as §1

With `COc1c(OCCCN2CCOCC2)ccc2c1N=C(NC(=O)c1cnc(N)nc1)N1CCN=C21` [Compound A, 2-amino-N-[7-methoxy-8-(3-morpholin-4-ylpropoxy)-2,3-dihydroimidazo[1,2-c]quinazolin-5-yl]pyrimidine-5-carboxamide], the IC50 was 3.7 nM in experiment [1]; 67 nM in experiment [2]; 8.1 nM in experiment [3]; 3.7 nM in experiment [4]; 69 nM in [5]; 12 nM in experiment [6]. Moreover, the IC50 was 23 nM in [7], 48 nM in experiment [8], 92 nM in experiment [9] and 3 to 100 nM in [10].
